From patent publication US20240116857A1 (St. Louis University, priority 2022, published 2024)
Converted amounts (≈) assume the structure as drawn. Like-named read-outs stand apart in the source and are kept apart here.

Experiments:
[1] = tested on: E. coli BW25113; test: MIC, 2-fold broth dilution, E. coli BW25113; format: cell-based, Escherichia coli; details: Escherichia coli, E. coli BW25113
[2] = tested on: Klebsiella oxytoca ATCC700324 Pore; test: MIC, permeabilized bacteria; format: cell-based
[3] = tested on: Staphylococcus aureus ATCC 25923; test: MIC, 2-fold broth dilution; format: cell-based; details: ATCC25923, non MDR
[4] = tested on: Pseudomonas aeruginosa 462; test: MIC, 2-fold broth dilution; format: cell-based; details: WT, clinical non MDR
[5] = tested on: Pseudomonas aeruginosa BAA 2108; test: MIC, 2-fold broth dilution; format: cell-based; details: BAA2108
[6] = tested on: Pseudomonas aeruginosa 273; test: MIC, 2-fold broth dilution; format: cell-based; details: WT, clinical non MDR
[7] = tested on: Burkholderia thailandensis; test: microbe, parasite or virus in culture; format: cell-based
[8] = tested on: Acinetobacter baumannii Ab5075 ΔIJK; test: MIC, permeabilized bacteria; format: cell-based
[9] = tested on: Klebsiella oxytoca ATCC700324; test: MIC, 2-fold broth dilution; format: cell-based; details: WT
Description: (§1) Luria-Bertani (LB) broth (10 g of Bacto tryptone, 5 g of yeast extract, and 5 g of NaCl per liter; pH 7.0) was used for bacterial growth. The bacterial strains were inoculated overnight at 37° C. Cells were 1:100 subcultured into a fresh 30-ml volume of LB medium and grown at 37° C. to an optical density at 600 nm (OD600) of 0.3. When appropriate, the cells cultures were supplemented with 0.1% L-arabinose or 0.1 mM isopropyl β-d-1-thiogalactopyranoside (IPTG), to induce expression of the “Pore” protein. The cells were cultured up to OD600 of 1.0. The test compounds were dissolved in dimethylsulfoxide (DMSO) to make the final 10 mM stock solution. The minimal inhibitory concentrations (MIC) were determined using the 2-fold broth dilution method (1). The OD600 was measured using a Tecan Spark 10 M microplate reader.

[10] = tested on: Acinetobacter baumannii ATCC17978; test: MIC, 2-fold broth dilution; format: cell-based; details: WT
Description: as §1

[11] = tested on: Pseudomonas aeruginosa PAO1; test: MIC, 2-fold broth dilution; format: cell-based; details: WT
Description: as §1

[12] = tested on: Klebsiella pneumoniae ATCC13883; test: MIC, 2-fold broth dilution; format: cell-based; details: WT
Description: as §1

[13] = tested on: Klebsiella aerogenes ATCC13048; test: MIC, 2-fold broth dilution; format: cell-based; details: WT
Description: as §1

[14] = tested on: Enterobacter cloacae ATCC13047; test: MIC, 2-fold broth dilution; format: cell-based; details: WT
Description: as §1

[15] = tested on: Pseudomonas aeruginosa PAO1 Δ6-Pore; test: MIC, permeabilized bacteria; format: cell-based
[16] = tested on: Burkholderia thailandensis Δ2-Pore; test: microbe, parasite or virus in culture; format: cell-based
[17] = tested on: Pseudomonas aeruginosa 515; test: MIC, 2-fold broth dilution; format: cell-based; details: WT, clinical non MDR
[18] = tested on: Staphylococcus aureus ATCC 700787; test: MIC, 2-fold broth dilution; format: cell-based; details: ATCC700787
[19] = tested on: Acinetobacter baumannii AYE ΔB ΔIJK; test: MIC, permeabilized bacteria; format: cell-based
[20] = tested on: Acinetobacter baumannii Ab5075; test: MIC, 2-fold broth dilution; format: cell-based
[21] = tested on: Acinetobacter baumannii AYE; test: MIC, 2-fold broth dilution; format: cell-based
[22] = Cytotoxicity assay (CellTiter AQueous One Solution, MTS); format: cell-based; details: human, HEK293 cells, 24 h incubation
Description: Cytotoxicity of the compounds was evaluated using the CellTiter AQueous One Solution Cell Proliferation Assay (MTS; Promega) as previously described (2). HEK293 cells were incubated with a 2-fold serially diluted compounds for 24 h at 37° C. with 5% CO2, followed by addition of 20 μL of CellTiter AQueous and further incubated for 4 h at 37° C. The absorbance at 490 nm was recorded using a Tecan Spark 10 M plate reader. All measurements were done in three replicas. The growth curves were then fitted to a sigmoidal equation to determine the cytotoxicity concentration CC50.

[23] = tested on: Yersinia pestis KIM6+; test: microbe, parasite or virus in culture; format: cell-based
[24] = tested on: Acinetobacter baumannii ATCC17978 Δ3-Pore; test: MIC, permeabilized bacteria; format: cell-based
[25] = tested on: Pseudomonas aeruginosa MP 2019; test: MIC, 2-fold broth dilution; format: cell-based; details: MP2019, WT, MDR
[26] = asterisk in column 1-10, read-out: MIC, μM 1-10
[27] = asterisk in column 10-50, read-out: MIC, μM 10-50
[28] = asterisk in column >50, read-out: MIC, μM >50

Structure (SMILES): C[n+]1ccc(Nc2ccc(NC(=O)c3ccc(C(=O)Nc4ccc(Nc5cc[n+](C)cc5)cc4)c(OC(F)(F)F)c3)cc2)cc1 [Example 44, 4,4′-((((2-(trifluoromethoxy)terephthaloyl)bis(azanediyl))bis(4,1-phenylene))bis(azanediyl))bis(1-methylpyridin-1-ium)]
- MIC [1, 26]: 1 to 10 µM
- MIC [2]: 50 µM
- MIC [3]: 0.4 µM
- MIC [4]: 50 µM
- MIC [5]: 100 µM
- MIC [6]: 25 µM
- MIC [7]: > 100 µM
- MIC [8]: 12.5 µM
- MIC [9]: 100 µM
- MIC [10]: 3.1 µM
- MIC [11]: 25 µM
- MIC [12]: 25 µM
- MIC [13]: 50 µM
- MIC [14]: 25 µM
- MIC [15]: 0.4 µM
- MIC [16]: 6.2 µM
- MIC [17]: 50 µM
- MIC [18]: 0.2 µM
- MIC [19]: 0.1 µM
- MIC [20]: 25 µM
- MIC [21]: 25 µM
- CC50 at 24 h [22]: 290 µM
- MIC [23]: 1.6 µM
- MIC [24]: 0.4 µM
- MIC [25]: 25 µM

Structure (SMILES): COc1cc(NC(=O)c2ccc(-c3ccc(C(=O)Nc4ccc([N+](C)(C)C)c(OC)c4)cc3)cc2)ccc1[N+](C)(C)C [Example 35, 4,4′-(([1,1′-biphenyl]-4,4′-dicarbonyl)bis(azanediyl))bis(2-methoxy-N,N,N-trimethylbenzenaminium)]
- MIC [1, 27]: 10 to 50 µM
- CC50 at 24 h [22]: 650 µM

Structure (SMILES): C[n+]1ccc(Nc2ccc(NC(=O)c3ccc(C(=O)Nc4ccc(Nc5cc[n+](C)cc5)cc4)c(N)c3)cc2)cc1 [Example 30, 4,4′-((((2-aminoterephthaloyl)bis(azanediyl))bis(4,1-phenylene))bis(azanediyl))bis(1-methylpyridin-1-ium)]
- MIC [1, 26]: 1 to 10 µM
- CC50 at 24 h [22]: 480 µM

Structure (SMILES): C[N+](C)(C)c1ccc(NC(=O)c2ccc(-c3ccc(C(=O)Nc4ccc([N+](C)(C)C)c(Cl)c4)cc3)cc2)cc1Cl [Example 39, 4,4′-(([1,1′-biphenyl]-4,4′-dicarbonyl)bis(azanediyl))bis(2-chloro-N,N,N-trimethylbenzenaminium)]
- MIC [1, 26]: 1 to 10 µM
- CC50 at 24 h [22]: 330 µM

Structure (SMILES): C[n+]1ccc(Nc2ccc(NC(=O)c3ccc(-c4ccc(C(=O)Nc5ccc(Nc6cc[n+](C)cc6)cc5)cc4)cc3)cc2)cc1 [Example 17, 4,4′-(((([1,1′-biphenyl]-4,4′-dicarbonyl)bis(azanediyl))bis(4,1-phenylene))bis(azanediyl))bis(1-methylpyridin-1-ium)]
- MIC ([1]; asterisk in column <1, read-out: MIC, μM <1): < 1 µM
- MIC [2]: > 100 µM
- MIC [3]: 0.8 µM
- MIC [4]: 12.5 µM
- MIC [5]: > 100 µM
- MIC [6]: 12.5 µM
- MIC [7]: > 100 µM
- MIC [8]: 6.2 µM
- MIC [9]: > 100 µM
- MIC [10]: 6.2 µM
- MIC [11]: 6.2 µM
- MIC [12]: 3.1 µM
- MIC [13]: 6.2 µM
- MIC [14]: 50 µM
- MIC [15]: 0.2 µM
- MIC [16]: 0.8 µM
- MIC [17]: > 100 µM
- MIC [18]: 0.4 µM
- MIC [19]: 0.2 µM
- MIC [20]: 12.5 µM
- MIC [21]: > 100 µM
- CC50 at 24 h [22]: > 1000 µM
- MIC [23]: 100 µM
- MIC [24]: 0.8 µM
- MIC [25]: > 100 µM

Structure (SMILES): C[n+]1ccc(Nc2ccc(NC(=O)c3ccc(C(=O)Nc4ccc(Nc5cc[n+](C)cc5)cc4)c(C(F)(F)F)c3)cc2)cc1 [Example 47]
- MIC [1, 27]: 10 to 50 µM
- CC50 at 24 h [22]: 350 µM

Structure (SMILES): C[n+]1ccc(Nc2ccc(NC(=O)c3ccc(C(=O)Nc4ccc(Nc5cc[n+](C)cc5)cc4)c([N+](=O)[O-])c3)cc2)cc1 [Example 25, 4,4′-((((2-nitroterephthaloyl)bis(azanediyl))bis(4,1-phenylene))bis(azanediyl))bis(1-methylpyridin-1-ium)]
- MIC [1, 26]: 1 to 10 µM
- CC50 at 24 h [22]: 350 µM

Structure (SMILES): C[n+]1ccc(NC(=O)c2ccc(C(=O)Nc3cc[n+](C)cc3)cc2)cc1 [Example 2, 4,4′-(terephthaloylbis(azanediyl))bis(1-methylpyridin-1-ium)]
- MIC [1, 28]: > 50 µM

Structure (SMILES): O=C(Nc1ccc(-c2ccncc2)cc1)c1ccc(C(=O)Nc2ccc(-c3ccncc3)cc2)cc1 [Example 54, N^1,N^4-bis(4-(pyridin-4-yl)phenyl)terephthalamide]
- MIC [1, 28]: > 50 µM

Structure (SMILES): O=C(Nc1ccc(Nc2ccncc2)cc1)c1ccc(-c2ccc(C(=O)Nc3ccc(Nc4ccncc4)cc3)cc2)cc1 [Example 16, N^4,N^4′-bis(4-(pyridin-4-ylamino)phenyl)-[1,1′-biphenyl]-4,4′-dicarboxamide]
- MIC [1, 28]: > 50 µM

Structure (SMILES): C[n+]1ccc(C(=O)Nc2ccc(-c3ccc(NC(=O)c4cc[n+](C)cc4)cc3)cc2)cc1 [Example 85, 4,4′-(([1,1′-biphenyl]-4,4′-diylbis(azanediyl))bis(carbonyl))bis(1-methylpyridin-1-ium)]
- MIC [1, 28]: > 50 µM

Structure (SMILES): C#CCCOc1cc(NC(=O)c2ccc(-c3ccc(C(=O)Nc4ccc([N+](C)(C)C)c(F)c4)cc3)cc2)ccc1[N+](C)(C)C [Example 103, 2-(but-3-yn-1-yloxy)-4-(4′-((3-fluoro-4-(trimethylammonio)phenyl)carbamoyl)-[1,1′-biphenyl]-4-carboxamido)-N,N,N-trimethylbenzenaminium]
- MIC [1, 26]: 1 to 10 µM

Structure (SMILES): CN(C)c1ccc(NC(=O)c2ccc(-c3ccc(C(=O)Nc4ccc(N(C)C)c(Cl)c4)cc3)cc2)cc1Cl [Example 38, N^4,N^4′-bis(3-chloro-4-(dimethylamino)phenyl)-[1,1′-biphenyl]-4,4′-dicarboxamide]
- MIC [1, 28]: > 50 µM

Structure (SMILES): C[N+](C)(C)c1ccc(NC(=O)c2ccc(-c3ccc(C(=O)Nc4ccc([N+](C)(C)CCCc5cn(CCOCCOCCOCCNC(=O)CCCC[C@@H]6SC[C@@H]7NC(=O)N[C@@H]76)nn5)c(F)c4)cc3)cc2)cc1F [Example 133]
- MIC [1, 28]: > 50 µM

Structure (SMILES): C[N+](C)(C)c1ccc(NC(=O)c2ccc(-c3ccc(C(=O)Nc4ccc([N+](C)(C)C)c(OCCCc5cn(CCOCCOCCOCCNC(=O)CCCC[C@@H]6SC[C@@H]7NC(=O)N[C@@H]76)nn5)c4)cc3)cc2)cc1F [Example 137]
- MIC [1, 28]: > 50 µM

Structure (SMILES): CN(C)c1ccc(NC(=O)c2ccc(-c3ccc(C(=O)Nc4ccc(N5CCCCC5)cc4)cc3)cc2)cc1 [Example 127]
- MIC [1, 26]: 1 to 10 µM (≈ 0.519 to 5.19 µg/mL)

Structure (SMILES): CN(C)c1ccc(NC(=O)c2ccc(-c3ccc(C(=O)Nc4ccc(N(C)C)c([N+](=O)[O-])c4)cc3C#N)cc2)cc1 [Example 148]
- MIC [1, 28]: > 50 µM

Structure (SMILES): C[n+]1ccc(Nc2ccc(NC(=O)c3ccc(C(=O)Nc4ccc(Nc5cc[n+](C)cc5)cc4)c(Cl)c3)cc2)cc1 [Example 20, 4,4′-((((2-chloroterephthaloyl)bis(azanediyl))bis(4,1-phenylene))bis(azanediyl))bis(1-methylpyridin-1-ium)]
- MIC [1, 26]: 1 to 10 µM
- MIC [2]: 25 µM
- MIC [3]: 0.8 µM
- MIC [4]: 12.5 µM
- MIC [5]: > 100 µM
- MIC [6]: 12.5 µM
- MIC [7]: > 100 µM
- MIC [8]: 25 µM
- MIC [9]: 25 µM
- MIC [10]: 3.1 µM
- MIC [11]: 25 µM
- MIC [12]: 12.5 µM
- MIC [13]: 12.5 µM
- MIC [14]: 12.5 µM
- MIC [15]: 0.2 µM
- MIC [16]: 6.2 µM
- MIC [17]: 25 µM
- MIC [18]: 1.6 µM
- MIC [19]: 0.2 µM
- MIC [20]: 25 µM
- MIC [21]: 25 µM
- CC50 at 24 h [22]: > 1000 µM
- MIC [23]: 1.6 µM
- MIC [24]: 0.8 µM
- MIC [25]: 12.5 µM

Structure (SMILES): CN(C)c1ccc(NC(=O)c2ccnc(-c3cc(C(=O)Nc4ccc(N(C)C)cc4)ccn3)c2)cc1 [Example 76, N^4,N^4′-bis(4-(dimethylamino)phenyl)-[2,2′-bipyridine]-4,4′-dicarboxamide]
- MIC [1, 28]: > 50 µM
